Calls of active or inactive are those of the source.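 The calls were made as follows: active = compounds giving half or more protection of infected cells from virus-caused growth loss, again on retest; inactive = the rest.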 *1 amine or outer side, *2 acyl side, *3 side chain or, on linkers, in order; H or OH if unused. Where a SMILES comes first, the peptide text is derived from it. [ ]: non-standard residue; d: D form. X7 = NC(N)=NCC(O)CC(N[*:1])C(=O)[*:2]; Orn = NCCC[CH](N)C(=O)O
Test system: CEM cells HIV-1 protection, formazan growth assay
Test: NCI AIDS Antiviral Assay
Details: for IC50: measured here: growth of uninfected CEM cells
In short: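 Five concentrations of each compound were applied to infected and uninfected human CEM cells. Protection from HIV-1 was judged from growth measured with a soluble formazan assay.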

O=C(O)C(Cc1ccc2c(c1)CCC2)(Cc1ccc2c(c1)CCC2)C(=O)O
EC50: > 200 µM
IC50: > 200 µM

O=C(/C(=N/Nc1ccccc1)c1ccc([N+](=O)[O-])cc1)c1ccc([N+](=O)[O-])cc1
outcome: inactive

COC(=O)C1=C(C(=O)OC)N(c2ccncc2)C(c2ccco2)=CC1c1ccccc1[N+](=O)[O-] (stereo not given)
EC50: > 74.1 µM
IC50: 7.24 µM

O=[N+]([O-])c1ccc(S(=O)(=O)N=Ic2ccccc2)cc1
EC50: > 200 µM
IC50: > 200 µM

Cc1c2oc(=O)cc(-c3ccccc3)c2cc2c(=O)ccoc12
EC50: > 22.4 µM
IC50: > 22.4 µM

CCOC(=O)C(C(=O)OCC)C1(c2ccccc2)OC(=O)c2ccccc21 (stereo not given)
outcome: inactive

O[C@]12c3ccccc3C1CCCC2N1CCOCC1 (stereo not given in full)
EC50: > 200 µM
IC50: > 200 µM

c1ccc([CH2][Sn]([CH2]c2ccccc2)([O]c2cccc3cccnc23)[O]c2cccc3cccnc23)cc1
outcome: inactive

O=C(NC(=S)Nc1ccccn1)c1ccccc1
EC50: > 200 µM
IC50: 135 µM

C[C@]12CC[C@H](O)CC1=CC[C@@H]1C2CC[C@@]2(C)C1CC[C@@H]2c1ncc(-c2ccccc2)s1 (stereo not given in full)
EC50: > 11.5 µM
IC50: > 11.5 µM

COc1ccc(Br)c(C=Nc2cccc3cc(OC)c(OC)cc23)c1
outcome: inactive

Cn1ccnc1CCc1ccc(Cl)c(Cl)c1
EC50: > 851 µM
IC50: 97.7 µM

C#CCCCCC#CC1CCCC1C1=CC(=O)c2ccccc21 (stereo not given)
EC50: > 100 µM
IC50: 6.03 µM

COc1ccc(-c2n[nH]c3c2CCCc2ccccc2-3)cc1
EC50: > 43.7 µM
IC50: 18.2 µM

N#CCOc1ccc(/C=C/C(=O)c2ccc(Cl)cc2)cc1
EC50: > 200 µM
IC50: 17.4 µM

Cc1cccc(C)c1NC(=O)/C(Cl)=C(/Cl)C(=O)O
outcome: inactive

CCCCCCOC(=O)Nc1nnc(SSC2=NN=CC2NC(=O)OCCCCCC)s1 (stereo not given)
EC50: > 200 µM
IC50: 19.5 µM

CCOC(=O)CO/N=C\C1=CC(=O)C2CC1C2(C)C (stereo not given)
EC50: > 200 µM
IC50: > 200 µM

N=C(/C=C/c1ccc(-c2cn3cc(/C=C/C(=N)N4CCOCC4)ccc3n2)cc1)N1CCOCC1
EC50: 162 µM
IC50: 186 µM

COc1ccc(C2C3=C(COC3=O)Oc3cc4c(cc32)OCO4)cc1OC (stereo not given)
EC50: > 20 µM
IC50: 0.603 µM

S=C1CCSc2c(ccc3ccccc23)N1
EC50: > 200 µM
IC50: 166 µM

CSc1nc(C)cc(Nc2ccc(O)c(CN3CCCCC3)c2)n1
EC50: > 155 µM
IC50: 64.6 µM

C=C1C[C@](OC)([C@H](O)C(=O)N[C@@H](OC)[C@@H]2C[C@@H](O)C(C)(C)[C@@H](C[C@@H](COC)OC)O2)O[C@H](C)[C@@H]1C
outcome: inactive

C/C=C/COc1cc(NC(=S)c2ccoc2C)ccc1OC
EC50: 0.813 µM
IC50: 1.62 µM

CC1C(c2ccccc2)SC(=N)N1C (stereo not given)
EC50: > 417 µM
IC50: 257 µM

CCOC(=O)c1cc(NC(=O)c2ccccc2)c(=O)n2c(cc3c(Cl)cccc32)c1O
EC50: > 200 µM
IC50: > 200 µM

Cc1cc(N(CCC#N)S(C)(=O)=O)ccc1C=Nc1ccc(C(=O)NN2C(=O)/C(=C/c3ccc(N(CCC#N)CCC#N)cc3C)N=C2c2cc([N+](=O)[O-])ccc2Cl)cc1
EC50: > 42.7 µM
IC50: > 42.7 µM

NC(=O)C(=CN1C(=O)CC(=O)NC1=S)C(N)=O
EC50: > 200 µM
IC50: > 200 µM

CC(C)(C)C(=O)Nc1ccccc1C(=O)C12CCC3(CCOCc4ccccc4)C=CCN(C(=O)O1)C32 (stereo not given)
EC50: 15.5 µM
IC50: 42.7 µM

C=C(C)CCC(=O)[C@](C)(O)[C@H]1[C@H](O)C[C@@]2(C)[C@@H]3CCc4c(cc(OC5OC(CO)C(O)C(O)C5O)c(O)c4C)C3(C)C(=O)C[C@]12C (stereo not given in full)
EC50: > 200 µM
IC50: > 200 µM

O=C1N(c2ccccc2)SN2C3C=CC(C4CC43)N12 (stereo not given)
EC50: > 182 µM
IC50: > 182 µM

Clc1ccc(C(SCc2ccccc2)SCc2ccccc2)cc1
EC50: > 200 µM
IC50: > 200 µM

O=c1[nH]c(=O)n(COCc2ccccc2)c2ccc(Br)cc12
EC50: > 200 µM
IC50: > 200 µM

COc1ccc2[nH]c3c(c2c1)CCNC3CC(C)CCC=C(C)C (stereo not given)
EC50: > 100 µM
IC50: 6.31 µM

COc1cccc(NC(=S)/C(=C(\[O-])c2ccc([N+](=O)[O-])cc2)[n+]2ccc(C(C)C)cc2)c1
EC50: > 200 µM
IC50: > 200 µM

CC1(C)NC(=O)N(C(C)(C)C(=O)O)C1=O
EC50: > 200 µM
IC50: > 200 µM

CCOC(=O)C(=Cc1cccc([N+](=O)[O-])c1)C(=O)OCC
EC50: > 89.1 µM
IC50: 8.91 µM

Cn1c(=O)nc2n(-c3cccc(Br)c3)c3ccccc3nc-2c1=O
outcome: inactive

COc1ccc(-n2nc3c(N)nnc-3nc2-c2ccccc2)cc1
EC50: > 4.07 µM
IC50: > 4.07 µM

CC1=CC(=O)c2c(C=O)c(O)c(O)c(C(C)C)c2C1=O
EC50: > 95.5 µM
IC50: 1.91 µM

O=C(Nn1c(-c2ccccc2)nc2ccccc2c1=O)c1ccc([N+](=O)[O-])cc1
EC50: > 200 µM
IC50: > 200 µM

O=C(NC1C2CC3CC(C2)CC1C3)/C(Cl)=C1/Sc2ccccc2NC1=O (stereo not given)
EC50: > 5.13 µM
IC50: > 5.13 µM

Brc1ccc(/C=C2\C=Cc3ccccc32)cc1
EC50: > 25.7 µM
IC50: > 25.7 µM

O=C(/C=C/c1c(O)ccc2ccccc12)c1cccc(O)c1
EC50: > 617 µM
IC50: 91.2 µM

COc1cc(N=Nc2ccc(S(=O)(=O)O)cc2)c(C)cc1N=Nc1cc(S(=O)(=O)O)c(NC(=O)c2ccc(N)cc2)cc1NC(C)=O
EC50: 13.2 µM
IC50: > 200 µM

Cc1cc(OCc2nnc3n2S(=O)(=O)c2ccccc2N3C)ccc1Cl
EC50: > 200 µM
IC50: > 200 µM

C=C1CC(c2ccc(O)c(OC)c2)Oc2c(OC)cccc21 (stereo not given)
EC50: > 316 µM
IC50: 32.4 µM

NC(=S)N/N=C1/C(=O)N(c2ccc(Cl)cc2Cl)C(=O)C(=O)C1c1nc2ccccc2s1 (stereo not given)
EC50: > 72.4 µM
IC50: > 72.4 µM

COc1cc(Cc2ccc3c(c2C#N)N(C)c2ccccc2S3)cc(OC)c1OC
EC50: > 200 µM
IC50: 3.63 µM

CC(O)C(NC(=O)C(CCCN)NC(=O)C(CC(O)CN=C(N)N)NC(=O)C(N)CCCN=C(N)N)C(=O)NC(CCCN)C(=O)NC(CC(O)CN=C(N)N)C(=O)NC(Cc1ccc(O)cc1)C(=O)O (stereo not given) (tested in a mixture with another compound) (H-R[X7][Orn]T[Orn][X7]Y-OH; configuration not given here)
EC50: > 47.9 µM
IC50: 39.8 µM

Cc1ccccc1NC(=O)O/N=C(\Cl)C(C)C
EC50: > 20 µM
IC50: 3.16 µM

CNc1c(Br)cc(/C=C2\C=Cc3ccccc32)cc1Br
EC50: > 9.55 µM
IC50: > 9.55 µM

Cc1cc(N(CCC#N)CCC#N)ccc1/C(N=Nc1ccc([N+](=O)[O-])cc1)=N\NC(=O)c1cc(Cl)ccc1O
EC50: > 200 µM
IC50: 22.9 µM

C=CCOCn1ccc(N)nc1=O
outcome: inactive

C/C=C/c1cc2c(c(=O)o1)C(=O)[C@@H](O)[C@H](C)O2
EC50: > 200 µM
IC50: 3.72 µM

c1ccc(SC(CNCCc2ccco2)c2ccc3c(c2)OCO3)cc1 (stereo not given)
EC50: > 200 µM
IC50: 26.9 µM

CCC1(CC)SCC(=O)NC1=O
EC50: > 200 µM
IC50: > 200 µM

O/N=C1/C2CC3CC1(c1ccccc1)CC(/C3=N/O)/C2=N\O (stereo not given)
EC50: > 200 µM
IC50: > 200 µM

CCOC(=O)c1cncc(C#N)c1
EC50: > 200 µM
IC50: 105 µM

C=CCCCN1CCCC(C)C1=S (stereo not given)
EC50: > 251 µM
IC50: > 251 µM

CN1CCc2c([nH]c3ccccc23)C1
EC50: > 200 µM
IC50: > 200 µM

O=C1C(=O)N(c2ccc(Cl)cc2)C(=O)C(=Nc2cccc3c(=O)[nH][nH]c(=O)c23)C1c1nc2ccccc2o1 (stereo not given)
outcome: inactive

COC(=O)C1=C(C)N(NC(=O)Nc2ccccc2)C2(N)N(NC(=O)Nc3ccccc3)C(C)=C(C(=O)OC)C12C(=O)OC (stereo not given)
EC50: > 31.6 µM
IC50: > 31.6 µM

O=P(O)(O)c1ccc(-c2ccc(I)cc2)cc1
EC50: > 200 µM
IC50: > 200 µM

CC(=O)Nc1ccc(NC(=O)c2cccc3c(Nc4ccc(S(=O)(=O)Nc5cc(C)on5)cc4)c4ccccc4nc23)cc1
EC50: > 200 µM
IC50: 23.4 µM

Cc1cc2c(=O)c3ccccc3oc2c(C(=O)O)c1C
EC50: > 200 µM
IC50: > 200 µM

O=C(NO)c1ccc(OCc2cccc(Cl)c2)cc1
EC50: > 200 µM
IC50: 10 µM

O=C1NC(=O)C(COCc2ccccc2)C2=C1SCCC2 (stereo not given)
EC50: > 200 µM
IC50: > 200 µM

O=S(O)CCCSSSCCCS(=O)O
outcome: inactive

O=C1/C(=C/c2ccccc2Cl)Cc2ccccc21
EC50: > 5.37 µM
IC50: > 5.37 µM

Nc1nc(N)c(-c2ccccc2)c(CCC(=O)Nc2ccc(Cl)cc2)n1
EC50: > 490 µM
IC50: 24 µM

CCN(N=O)C1C2(CCCC2)NC(=O)C12CCCC2 (stereo not given)
outcome: inactive

COc1cc2c(OC)cc1CSCc1sc(C)c(c1Br)CSC2
EC50: > 11.5 µM
IC50: > 11.5 µM

CC(=O)N(CC(=O)C(=O)NNc1ccoc1)c1ccc(Cl)cc1
EC50: > 200 µM
IC50: > 200 µM

Cc1ccc(C)c(NC(=O)C(=O)Nn2c(=S)[nH]c3ccccc3c2=O)c1
EC50: > 501 µM
IC50: 191 µM

CCOC(=O)c1sc(SC)nc1NC(=O)c1ccc(OC)cc1
EC50: > 200 µM
IC50: > 200 µM

Cc1cn(C2CC(N=[N+]=[N-])C(COC(=O)C(O)[C@@]3(O)CC[C@H]4[C@@H]5CCC6=CC(=O)C=C[C@]6(C)[C@H]5[C@@H](O)C[C@@]43C)O2)c(=O)[nH]c1=O (stereo not given in full)
EC50: 0.708 µM
IC50: > 200 µM

CC(=O)Nc1sccc1S(=O)(=O)c1ccsc1NC(C)=O
EC50: > 200 µM
IC50: 5.62 µM

CC(C)(C)c1nc2c(o1)C(=Nc1ccccc1)c1ccccc1C2=O
outcome: inactive

S=C1N=C(Cl)/C(=C\c2ccccc2)N1
EC50: > 200 µM
IC50: > 200 µM

O=C1c2ccccc2C2C1N2C(=O)C(F)(F)F (stereo not given)
EC50: > 148 µM
IC50: 24.5 µM

O=C1C=C(Nc2ccc(Cl)cc2C(=O)c2ccccc2)c2ccccc2C1=O
EC50: > 174 µM
IC50: > 174 µM

N#CCN1CCCCCC1
EC50: > 200 µM
IC50: > 200 µM

Cc1nc(N)c2c(n1)C(C)N(C(=O)c1ccccc1)C2 (stereo not given)
EC50: > 135 µM
IC50: > 135 µM

COP(=O)(OC)C(C)(C)NC(=O)NC(F)(F)F
EC50: > 200 µM
IC50: > 200 µM

O=S(=O)(O)OCCOc1ccc(S(=O)(=O)c2ccc(OCCOS(=O)(=O)O)cc2)cc1
EC50: > 200 µM
IC50: > 200 µM

Source: PubChem BioAssay AID179 (DTP/NCI, 2004)
